These results are taken from patent US20090247559A1 (Exelixis, Inc., priority 2007, published 2009).

The target of assay [1] is PIM (PIM-1, PIM-2, and/or PIM-3). Nature of the assay: PIM-1, PIM-2 and PIM-3 inhibition, biochemical chemiluminescence assays (Kinase Glo, IC50 determination). To be noted: Table 1 activity class; PIM refers to PIM-1, PIM-2, and/or PIM-3; read-out: PIM IC50 (Activity B). A general note: Kinase-Glo reads ATP consumption through a luciferase reaction.
In another assay the target is CK2 (Homo sapiens, UniProt P68400). Nature of the assay: CK2 inhibition, biochemical chemiluminescence holoenzyme assay (Kinase Glo, IC50 determination). To be noted: Table 1 activity class; symbol given only if active; read-out: CK2 IC50 (Activity C). The procedure, abridged:
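Holoenzyme CK2 assay; compounds pre-incubated with substrate and enzyme, then reacted 150 min at 24-27° C. Remaining ATP measured as luminescence with Kinase Glo, and IC50 derived from the signal.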

The next assay concerns the target CDC7 (Homo sapiens, UniProt O00311). Nature of the assay: CDC7 inhibition, biochemical chemiluminescence assay (Kinase Glo, IC50 determination). The procedure, abridged:
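CDC7 enzyme preincubated with compound 10 min at ambient temperature, then ATP mix in Tris Base added; reaction 90 min at 24-27 °C. Remaining ATP quantified by Kinase Glo luminescence to give IC50.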

[2] abbreviates: Table 1 activity class, symbol given only if active, read-out: CDC7 IC50 (Activity A).
Where [3] appears, read: compounds in Table 1, read-out: CDC7 IC50 value.

The IC50 is the point on the concentration scale where inhibition reaches its midpoint.

Where a name gives a salt, the structure may show the parent alone. Read-outs that look alike come from different tables or passages of the source.

CDC7, sequence (O00311 whole entry): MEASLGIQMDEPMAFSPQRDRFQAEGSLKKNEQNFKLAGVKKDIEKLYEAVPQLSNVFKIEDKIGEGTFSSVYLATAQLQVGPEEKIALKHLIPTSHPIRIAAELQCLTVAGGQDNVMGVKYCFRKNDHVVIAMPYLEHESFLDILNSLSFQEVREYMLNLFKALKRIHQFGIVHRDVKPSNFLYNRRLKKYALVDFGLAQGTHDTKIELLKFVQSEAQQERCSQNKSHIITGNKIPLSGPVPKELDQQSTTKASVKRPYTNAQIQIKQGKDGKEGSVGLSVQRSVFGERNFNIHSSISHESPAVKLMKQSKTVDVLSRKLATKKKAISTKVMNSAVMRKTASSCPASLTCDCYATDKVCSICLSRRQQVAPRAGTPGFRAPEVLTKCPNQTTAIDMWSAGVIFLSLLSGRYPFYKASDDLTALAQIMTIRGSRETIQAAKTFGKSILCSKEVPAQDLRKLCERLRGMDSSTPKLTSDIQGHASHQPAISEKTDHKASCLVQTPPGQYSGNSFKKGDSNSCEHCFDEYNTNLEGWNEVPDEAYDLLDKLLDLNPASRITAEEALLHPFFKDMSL
CDC7, sequence (Q9UBU7 whole entry partner): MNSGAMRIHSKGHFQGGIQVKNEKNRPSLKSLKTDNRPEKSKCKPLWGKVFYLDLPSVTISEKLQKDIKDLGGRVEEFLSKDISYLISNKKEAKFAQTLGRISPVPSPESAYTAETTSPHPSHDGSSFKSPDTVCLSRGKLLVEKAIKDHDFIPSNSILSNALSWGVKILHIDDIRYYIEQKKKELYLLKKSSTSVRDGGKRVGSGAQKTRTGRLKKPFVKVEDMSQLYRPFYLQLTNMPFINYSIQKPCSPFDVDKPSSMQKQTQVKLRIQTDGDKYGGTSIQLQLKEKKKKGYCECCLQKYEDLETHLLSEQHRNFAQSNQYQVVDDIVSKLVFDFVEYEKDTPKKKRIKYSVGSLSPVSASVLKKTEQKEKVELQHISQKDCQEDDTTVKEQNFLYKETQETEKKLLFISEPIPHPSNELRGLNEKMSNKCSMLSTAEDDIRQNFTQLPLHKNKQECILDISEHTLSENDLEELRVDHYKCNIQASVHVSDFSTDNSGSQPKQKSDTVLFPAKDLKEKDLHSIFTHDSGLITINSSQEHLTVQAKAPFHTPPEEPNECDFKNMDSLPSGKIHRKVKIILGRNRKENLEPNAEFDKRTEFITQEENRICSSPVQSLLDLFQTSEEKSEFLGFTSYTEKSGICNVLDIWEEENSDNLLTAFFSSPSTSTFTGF
CK2, sequence (P68400 whole entry): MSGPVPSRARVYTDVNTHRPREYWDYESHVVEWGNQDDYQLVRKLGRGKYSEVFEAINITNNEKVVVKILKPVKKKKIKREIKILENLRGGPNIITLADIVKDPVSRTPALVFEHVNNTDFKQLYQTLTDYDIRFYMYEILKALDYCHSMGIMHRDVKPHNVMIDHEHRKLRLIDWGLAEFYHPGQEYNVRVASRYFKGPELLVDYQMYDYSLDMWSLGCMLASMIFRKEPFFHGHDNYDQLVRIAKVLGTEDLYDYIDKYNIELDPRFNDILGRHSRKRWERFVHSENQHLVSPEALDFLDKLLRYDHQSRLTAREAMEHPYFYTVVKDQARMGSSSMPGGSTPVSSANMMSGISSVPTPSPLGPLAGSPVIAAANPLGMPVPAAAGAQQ
CK2, sequence (P67870 whole entry partner): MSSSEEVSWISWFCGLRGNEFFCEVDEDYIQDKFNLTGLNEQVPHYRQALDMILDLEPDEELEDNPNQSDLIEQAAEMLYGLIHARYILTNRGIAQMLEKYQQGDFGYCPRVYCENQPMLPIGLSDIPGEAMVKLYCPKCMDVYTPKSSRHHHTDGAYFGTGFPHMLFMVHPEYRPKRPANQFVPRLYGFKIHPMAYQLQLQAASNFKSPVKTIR

For `CN(C)Cc1ccc(-c2nc3c(oc4ccc(Br)cc43)c(=O)[nH]2)c(Cl)c1` [Compound 381, 8-bromo-2-{2-chloro-4-[(dimethylamino)methyl]phenyl}[1]benzofuro[3,2-d]pyrimidin-4(3H)-one], the IC50 (in assay [1]; on CK2; at CDC7 (setting [2])) was under 10 µM in each case.

On to `CCOC(=O)C1CCN(Cc2nc3c(oc4ccc(Br)cc43)c(=O)[nH]2)C1` (centres unmarked) [Compound 269, Ethyl 1-[(8-bromo-4-oxo-3,4-dihydro[1]benzofuro[3,2-d]pyrimidin-2-yl)methyl]pyrrolidine-3-carboxylate], for which the IC50 in assay [1] was under 10 µM; at CK2 it was under 10 µM; at CDC7 (setting [2]), under 10 µM; on CDC7 (setting [3]), under 0.1 µM.

On to `NCc1nc2c(oc3ccc(Br)cc32)c(=O)[nH]1` [Compound 195, 2-(aminomethyl)-8-bromo[1]benzofuro[3,2-d]pyrimidin-4(3H)-one], for which the IC50 (in assay [1]; at CK2; on CDC7 (setting [2])) was under 10 µM throughout.

For `O=c1[nH]c(-c2cnc3cc(C4CCNCC4)nn3c2)nc2c1oc1ccc(Br)cc12` [Compound 377, 8-Bromo-2-(2-piperidin-4-ylpyrazolo[1,5-a]pyrimidin-6-yl)[1]benzofuro[3,2-d]pyrimidin-4(3H)-one], the IC50 (in assay [1]; on CK2; at CDC7 (setting [2])) was under 10 µM throughout.

Regarding `O=C(Nc1ccc(-c2nc3c(oc4ccc(Br)cc43)c(=O)[nH]2)c(Cl)c1)c1ccncc1Cl` [Compound 275, N-[4-(8-bromo-4-oxo-3,4-dihydro[1]benzofuro[3,2-d]pyrimidin-2-yl)-3-chlorophenyl]-3-chloropyridine-4-carboxamide], the IC50 (in assay [1]; on CK2; at CDC7 (setting [2])) was under 10 µM throughout.

Take `O=c1[nH]c(-c2c(Cl)cncc2Cl)nc2c1oc1ccc(Br)cc12` [Compound 107, 8-bromo-2-(3,5-dichloropyridin-4-yl)[1]benzofuro[3,2-d]pyrimidin-4(3H)-one]: the IC50 (in assay [1]; on CK2; on CDC7 (setting [2])) was under 10 µM throughout.

As for `CC(C)(CN1CCOCC1)NCc1nc2c(oc3ccc(Br)cc32)c(=O)[nH]1` [Compound 130, 8-bromo-2-{[(1,1-dimethyl-2-morpholin-4-ylethyl)amino]methyl}[1]benzofuro[3,2-d]pyrimidin-4(3H)-one], the IC50 (in assay [1]; on CK2; on CDC7 (setting [2])) was under 10 µM in each case.

With `O=c1[nH]c([C@@H]2CSCN2)nc2c1oc1ccc(Br)cc12` [Compound 500, 8-bromo-2-[(4R)-1,3-thiazolidin-4-yl][1]benzofuro[3,2-d]pyrimidin-4(3H)-one], the concentration for half-maximal inhibition (IC50) (in assay [1]; on CK2; on CDC7 (setting [2])) was under 10 µM each time.

Take `Cn1cnc(C(=O)Nc2ccc(-c3nc4c(oc5ccc(Br)cc54)c(=O)[nH]3)c(Cl)c2)c1` [Compound 389, N-[4-(8-bromo-4-oxo-3,4-dihydro[1]benzofuro[3,2-d]pyrimidin-2-yl)-3-chlorophenyl]-1-methyl-1H-imidazole-4-carboxamide]: the IC50 (in assay [1]; at CK2; at CDC7 (setting [2])) was under 10 µM throughout.

On to `O=c1[nH]c(-c2cccc3c2CCNC3)nc2c1oc1ccc(Br)cc12` [Compound 375, 8-Bromo-2-(1,2,3,4-tetrahydroisoquinolin-5-yl)[1]benzofuro[3,2-d]pyrimidin-4(3H)-one], for which the IC50 in assay [1] was under 10 µM; on CK2 it was under 10 µM; on CDC7 (setting [2]), under 10 µM; on CDC7 (setting [3]) it was under 0.1 µM.

Consider `O=c1[nH]c(CNC2CCC2)nc2c1oc1ccc(Br)cc12` [Compound 252, 8-bromo-2-[(cyclobutylamino)methyl][1]benzofuro[3,2-d]pyrimidin-4(3H)-one], for which the IC50 was under 10 µM in assay [1], under 10 µM at CK2, under 10 µM on CDC7 (setting [2]) and under 0.1 µM at CDC7 (setting [3]).

Take `CN1CCCC(c2nc3c(oc4ccc(Br)cc43)c(=O)[nH]2)C1` (centres unmarked) [Compound 184, dihydrochloride]: the IC50 in assay [1] is under 10 µM; on CK2, under 10 µM; at CDC7 (setting [2]) it was under 10 µM; at CDC7 (setting [3]) it was under 0.1 µM.

`COC(=O)Nc1ccc(-c2nc3c(oc4ccc(Br)cc43)c(=O)[nH]2)c(Cl)c1` [Compound 320, methyl [4-(8-bromo-4-oxo-3,4-dihydro[1]benzofuro[3,2-d]pyrimidin-2-yl)-3-chlorophenyl]carbamate]: the IC50 (in assay [1]; at CK2; on CDC7 (setting [2])) was under 10 µM each time.

With `O=C(Nc1ccc(-c2nc3c(oc4ccc(Br)cc43)c(=O)[nH]2)c(Cl)c1)c1cnco1` [Compound 374, N-[4-(8-bromo-4-oxo-3,4-dihydro[1]benzofuro[3,2-d]pyrimidin-2-yl)-3-chlorophenyl]-1,3-oxazole-5-carboxamide], the IC50 (in assay [1]; at CK2; at CDC7 (setting [2])) was under 10 µM throughout.

Take `O=C(CCN1CCOCC1)Nc1ccc(-c2nc3c(oc4ccc(Br)cc43)c(=O)[nH]2)c(Cl)c1` [Compound 248, N-[4-(8-bromo-4-oxo-3,4-dihydro[1]benzofuro[3,2-d]pyrimidin-2-yl)-3-chlorophenyl]-3-morpholin-4-ylpropanamide]: the IC50 (in assay [1]; at CK2; on CDC7 (setting [2])) was under 10 µM each time.

In the case of `NC1(c2nc3c(oc4ccc(Br)cc43)c(=O)[nH]2)CCCC1` [Compound 543, 2-(1-aminocyclopentyl)-8-bromo[1]benzofuro[3,2-d]pyrimidin-4(3H)-one], the IC50 is under 10 µM in assay [1], under 10 µM on CK2, under 10 µM at CDC7 (setting [2]) and under 0.1 µM on CDC7 (setting [3]).

With `COc1ccc2oc3c(=O)[nH]c([C@@H]4C[C@@H](F)CN4)nc3c2c1` [Compound 532, 2-[(2S,4R)-4-fluoropyrrolidin-2-yl]-8-(methyloxy)[1]benzofuro[3,2-d]pyrimidin-4(3H)-one], the IC50 was under 10 µM in assay [1], under 10 µM at CK2, under 10 µM at CDC7 (setting [2]) and under 0.1 µM on CDC7 (setting [3]).

On to `CN1CCC[C@H]1c1nc2c(oc3ccc(Br)cc32)c(=O)[nH]1` [Compound 527, 8-Bromo-2-[(2S)-1-methylpyrrolidin-2-yl][1]benzofuro[3,2-d]pyrimidin-4(3H)-one hydrochloride], for which the IC50 was under 10 µM in assay [1], under 10 µM on CK2, under 10 µM at CDC7 (setting [2]) and under 0.1 µM at CDC7 (setting [3]).

As for `Nc1n[nH]c2cc(-c3nc4c(oc5ccc(Br)cc54)c(=O)[nH]3)c(Cl)cc12` [Compound 205, 2-(3-amino-5-chloro-1H-indazol-6-yl)-8-bromo[1]benzofuro[3,2-d]pyrimidin-4(3H)-one], the IC50 (in assay [1]; on CK2; at CDC7 (setting [2])) was under 10 µM each time.

Turning to `CC(C)(C)OC(=O)N1CCC(NCc2ccc(-c3nc4c(oc5ccc(Br)cc54)c(=O)[nH]3)c(Cl)c2)CC1` [Compound 386, 1,1-dimethylethyl 4-({[4-(8-bromo-4-oxo-3,4-dihydro[1]benzofuro[3,2-d]pyrimidin-2-yl)-3-chlorophenyl]methyl}amino)piperidine-1-carboxylate], the IC50 (in assay [1]; at CK2; at CDC7 (setting [2])) was under 10 µM in each case.

Take `O=c1[nH]c(CNCc2ccccc2Cl)nc2c1oc1ccc(Br)cc12` [Compound 235, 8-bromo-2-({[(2-chlorophenyl)methyl]amino}methyl)[1]benzofuro[3,2-d]pyrimidin-4(3H)-one]: the IC50 (in assay [1]; at CK2; on CDC7 (setting [2])) was under 10 µM in each case.

In the case of `CC(C)(N)c1nc2c(oc3ccc(Cl)cc32)c(=O)[nH]1` [Compound 49, 2-(1-Amino-1-methylethyl)-8-chloro[1]benzofuro[3,2-d]pyrimidin-4(3H)-one], the IC50 in assay [1] was under 10 µM; on CK2, under 10 µM; at CDC7 (setting [2]) it was under 10 µM; at CDC7 (setting [3]), under 0.1 µM.

With `O=C(N[C@@H]1CN(Cc2nc3c(oc4ccc(Br)cc43)c(=O)[nH]2)C[C@H]1O)C1CCNCC1` [Compound 388, N-{(3R,4R)-1-[(8-bromo-4-oxo-3,4-dihydro[1]benzofuro[3,2-d]pyrimidin-2-yl)methyl]-4-hydroxypyrrolidin-3-yl}piperidine-4-carboxamide], the IC50 (in assay [1]; on CK2; on CDC7 (setting [2])) was under 10 µM throughout.

Turning to `O=c1[nH]c(C2CCNC2)nc2c1oc1ccc(Br)cc12` (centres unmarked) [Compound 186, 8-bromo-2-pyrrolidin-3-yl[1]benzofuro[3,2-d]pyrimidin-4(3H)-one], the IC50 was under 10 µM in assay [1], under 10 µM at CK2, under 10 µM on CDC7 (setting [2]) and under 0.1 µM at CDC7 (setting [3]).

As for `C[C@@H]1CNC[C@H](C)N1Cc1nc2c(oc3ccc(Br)cc32)c(=O)[nH]1` [Compound 216, 8-bromo-2-{[(2R,6S)-2,6-dimethylpiperazin-1-yl]methyl}[1]benzofuro[3,2-d]pyrimidin-4(3H)-one], the IC50 in assay [1] is under 10 µM; at CK2 it was under 10 µM; at CDC7 (setting [2]), under 10 µM; at CDC7 (setting [3]), under 0.1 µM.

Consider `O=c1[nH]c([C@H]2CCCN2)nc2c1oc1ccc(Br)cc12` [Compound 471, 8-bromo-2-[(2R)-pyrrolidin-2-yl][1]benzofuro[3,2-d]pyrimidin-4(3H)-one], for which the IC50 in assay [1] was under 10 µM; at CK2 it was under 10 µM; on CDC7 (setting [2]) it was under 10 µM; at CDC7 (setting [3]) it was under 0.1 µM.
